Experimental data from patent publication US8969413B2.

Tests used:
[1] = tested on: Mice; assay: maximal electrical shock (MES) model; assay type: in vivo; conditions: Single IP dose, 50 mA, 2 seconds, corneal electrode
Text: The MES is a model for generalized tonic-clonic seizures and provides an indication of a compound's ability to prevent seizure spread when all neuronal circuits in the brain are maximally active. These seizures are highly reproducible and are electrophysiologically consistent with human seizures. For all tests based on MES convulsions, 60 Hz of alternating current (50 mA in mice) is delivered for 2 s by corneal electrodes which have been primed with an electrolyte solution containing an anesthetic agent (0.5% tetracaine HCL). Mice are tested at various intervals following doses of 30, 100 and 300 mg/kg of test compound given by i.p. injection of a volume of 0.01 mL/g. Other doses can be used if indicated by previously known pharmacology. An animal is considered “protected” from MES-induced seizures upon abolition of the hindlimb tonic extensor component of the seizure (Swinyard et al., 1989; White et al., 1995a; White et al., 1995b).

[2] = biological target: T1, human ρ1 GABAC receptors (Homo sapiens, UniProt P24046); assay: GABAC receptor two-electrode voltage clamp in Xenopus laevis oocytes; assay type: cell-based
T1 construct: expressed in transfected cells; host or cells: Xenopus laevis oocytes injected with ρ1 mRNA
T1 sequence (P24046 21-479 limits assumed): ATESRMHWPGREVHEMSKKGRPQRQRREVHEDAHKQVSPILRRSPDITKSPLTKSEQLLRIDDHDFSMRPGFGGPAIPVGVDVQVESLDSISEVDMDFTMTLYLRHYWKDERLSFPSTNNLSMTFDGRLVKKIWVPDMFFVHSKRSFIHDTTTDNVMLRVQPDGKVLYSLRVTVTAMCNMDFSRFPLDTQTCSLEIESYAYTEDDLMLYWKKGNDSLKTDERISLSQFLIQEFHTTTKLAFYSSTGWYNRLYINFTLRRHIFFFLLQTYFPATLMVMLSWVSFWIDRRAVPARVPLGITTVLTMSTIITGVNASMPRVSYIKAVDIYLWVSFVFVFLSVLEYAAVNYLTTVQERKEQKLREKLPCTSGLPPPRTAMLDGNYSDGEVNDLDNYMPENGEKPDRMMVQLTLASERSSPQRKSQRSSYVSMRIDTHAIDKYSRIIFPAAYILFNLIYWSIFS
Experimental: Human ρ1 cDNA encapsulated in pcDNA1.1 was linearized with Not1. Linearized cDNA was transcribed to mRNA using the T7 “mMESSAGE mMACHINE” kit (Ambion Inc. Austin, Tex., USA) as previously described. […] Eur. J. Pharmacol. 2001, 430, 185-192. GABAC receptor activity assays were performed in oocytes harvested from Xenopus laevis (housed in the Department of Veterinary Science at the University of Sydney) and defolliculated. The oocytes were stored in ND96 solution (in mM) NaCl (96), KCl (2), MgCl2 (1), CaCl2 (1.8), HEPES (hemi-Na salt; 5) supplemented with sodium pyruvate (2.5), theophylline (0.5), and 50 μg/ml^−1 gentamycin for 2-5 days post-injection.
Electrophysiological methods were performed as previously described. Hertz L, Juurlink B H J, Hertz E, Fosmark H and Schousboe A. Preparation of Primary Cultures of Mouse (Rat) Astrocytes, in A Dissection and Tissue Culture Mnual of the Nervous System (Shahar A, de Vellis J, Vernadakis A and Haber B eds) pp 105-108, Alan R. Liss, Inc., New York, 1989 Stage V-VI oocytes were injected with 10 ng 50 nl^−1 of ρ1 mRNA and then stored at 16° C. Recordings of receptor activity were obtained for 2-5 days by a two-electrode voltage clamp by means of a Geneclamp 500 amplifier (Axon Instruments Inc., Foster City, Calif.), a MacLab 2e recorder (AD Instruments, Sydney, NSW), and Chart version 3.6.3 program. Oocytes were voltage clamped at −60 mV, and the preparation was continually perfused with ND96 solution at room temperature. […] Compound 2 (CPP-115) was tested on three oocytes from at least two harvests.

[3] = tested on: Sprague Dawley rats; assay: cocaine induced dopamine surge in nucleus accumbens (FIG. 3); conditions: 1 mg/kg single dose
[4] = biological target: GABAB receptor (Rattus norvegicus, UniProt Q9Z0U4); assay: biochemical
[5] = biological target: T2, mGAT1 (Mus musculus, UniProt P31648); assay: [3H]GABA uptake at mouse GABA transporters, HEK-293 cells; assay type: cell-based
T2 construct: expressed in transfected cells
Experimental: (§1) Cortical neurons were cultured essentially as previously described by removing the neopallium of 15-day old NMRI embryos by dissection followed by mild trypsination. Hertz E, Yu A C H, Hertz L, Juurlink B H J and Schousboe A. Preparation of Primary Cultures of Mouse Cortical Neurons, in A Dissection and Tissue Culture Manual of the Nervous System (Shahar A, de Vellis J, Vernadakis A and Haber B eds) pp 183-186, Alan R. Liss, Inc., New York, 198. The neurons were cultured in 10% fetal calf serum and, after 48 h, cytosine arabinoside was added to a final concentration of 20 μM to prevent glial proliferation. Four cultures of stably transfected Human Embryonic Kidney (HEK)-293 cells expressing mGAT1-4 were prepared by the method previously reported. […] J Pharmacol Exp Ther. 2002, 302, 636-644 The stable cell lines are under the selection pressure of blasticidin-S at 5 μg/mL. Determinations of the IC50 values were conducted as described earlier. […] Radioactivity was measured using Microscint™ 20 scintillation fluid (PerkinElmer) and a Packard TopCount microplate scintillation counter.

[6] = biological target: T3, mGAT3 (Mus musculus, UniProt P31649); assay: as above; assay type: cell-based
T3 construct: expressed in transfected cells
T3 sequence (P31649 whole entry): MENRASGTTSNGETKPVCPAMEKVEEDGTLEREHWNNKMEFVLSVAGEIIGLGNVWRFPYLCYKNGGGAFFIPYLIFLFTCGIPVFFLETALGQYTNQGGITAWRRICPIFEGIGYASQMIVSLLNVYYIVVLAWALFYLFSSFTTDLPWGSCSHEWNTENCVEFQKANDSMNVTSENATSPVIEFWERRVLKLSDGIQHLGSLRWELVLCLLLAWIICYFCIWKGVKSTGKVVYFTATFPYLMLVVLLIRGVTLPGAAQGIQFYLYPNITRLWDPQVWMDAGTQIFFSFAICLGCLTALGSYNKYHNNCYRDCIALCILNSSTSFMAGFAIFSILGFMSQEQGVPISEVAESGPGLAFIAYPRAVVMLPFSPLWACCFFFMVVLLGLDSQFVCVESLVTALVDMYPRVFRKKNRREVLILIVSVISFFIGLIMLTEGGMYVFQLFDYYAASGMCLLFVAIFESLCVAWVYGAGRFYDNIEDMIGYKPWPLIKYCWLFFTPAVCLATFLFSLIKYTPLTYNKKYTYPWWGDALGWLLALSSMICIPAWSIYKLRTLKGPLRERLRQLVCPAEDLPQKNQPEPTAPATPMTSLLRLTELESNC
Experimental: as §1

[7] = biological target: T4, mGAT4 (Mus musculus, UniProt P31650); assay: as above; assay type: cell-based
T4 construct: expressed in transfected cells
T4 sequence (P31650 whole entry): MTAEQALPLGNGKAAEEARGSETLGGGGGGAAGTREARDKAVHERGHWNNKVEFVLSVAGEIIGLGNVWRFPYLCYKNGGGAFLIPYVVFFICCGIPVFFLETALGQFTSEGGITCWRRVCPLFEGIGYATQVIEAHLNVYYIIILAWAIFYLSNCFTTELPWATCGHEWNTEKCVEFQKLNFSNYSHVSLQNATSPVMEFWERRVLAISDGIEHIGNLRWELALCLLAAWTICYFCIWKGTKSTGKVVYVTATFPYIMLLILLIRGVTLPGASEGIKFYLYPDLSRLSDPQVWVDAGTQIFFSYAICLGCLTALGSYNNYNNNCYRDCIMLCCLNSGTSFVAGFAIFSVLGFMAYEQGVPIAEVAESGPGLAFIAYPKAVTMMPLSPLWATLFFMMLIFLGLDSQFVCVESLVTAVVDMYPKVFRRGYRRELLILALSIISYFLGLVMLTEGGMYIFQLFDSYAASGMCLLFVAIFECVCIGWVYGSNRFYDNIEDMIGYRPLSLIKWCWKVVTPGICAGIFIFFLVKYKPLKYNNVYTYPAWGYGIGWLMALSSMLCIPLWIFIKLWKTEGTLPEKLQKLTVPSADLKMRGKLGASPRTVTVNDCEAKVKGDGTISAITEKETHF
Experimental: as §1

[8] = biological target: T5, mGAT2 (Mus musculus, UniProt P31651); assay: as above; assay type: cell-based
T5 construct: expressed in transfected cells
T5 sequence (P31651 whole entry): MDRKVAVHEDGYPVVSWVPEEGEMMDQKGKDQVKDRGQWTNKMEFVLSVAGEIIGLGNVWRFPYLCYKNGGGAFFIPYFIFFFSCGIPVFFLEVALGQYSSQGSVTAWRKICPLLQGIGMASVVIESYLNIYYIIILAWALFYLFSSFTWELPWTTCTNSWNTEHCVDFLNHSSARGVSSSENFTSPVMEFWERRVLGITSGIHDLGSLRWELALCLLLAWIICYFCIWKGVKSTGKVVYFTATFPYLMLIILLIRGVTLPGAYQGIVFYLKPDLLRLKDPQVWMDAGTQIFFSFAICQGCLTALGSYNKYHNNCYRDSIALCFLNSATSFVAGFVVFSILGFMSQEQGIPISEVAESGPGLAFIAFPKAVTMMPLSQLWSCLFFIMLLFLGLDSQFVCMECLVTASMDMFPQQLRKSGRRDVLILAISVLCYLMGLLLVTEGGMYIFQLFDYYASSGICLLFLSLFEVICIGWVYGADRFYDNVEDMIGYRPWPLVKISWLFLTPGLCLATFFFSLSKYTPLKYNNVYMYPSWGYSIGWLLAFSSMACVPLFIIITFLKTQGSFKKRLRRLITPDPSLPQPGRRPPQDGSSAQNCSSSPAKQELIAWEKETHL
Experimental: as §1

[9] = biological target: T6, hGAT-1 (Homo sapiens, UniProt P30531); assay: [3H]GABA uptake at human GABA transporters, tsA201 cells; assay type: cell-based
T6 construct: expressed in transfected cells; host or cells: tsA201 cells, transient (PolyFect)
T6 sequence (P30531 whole entry): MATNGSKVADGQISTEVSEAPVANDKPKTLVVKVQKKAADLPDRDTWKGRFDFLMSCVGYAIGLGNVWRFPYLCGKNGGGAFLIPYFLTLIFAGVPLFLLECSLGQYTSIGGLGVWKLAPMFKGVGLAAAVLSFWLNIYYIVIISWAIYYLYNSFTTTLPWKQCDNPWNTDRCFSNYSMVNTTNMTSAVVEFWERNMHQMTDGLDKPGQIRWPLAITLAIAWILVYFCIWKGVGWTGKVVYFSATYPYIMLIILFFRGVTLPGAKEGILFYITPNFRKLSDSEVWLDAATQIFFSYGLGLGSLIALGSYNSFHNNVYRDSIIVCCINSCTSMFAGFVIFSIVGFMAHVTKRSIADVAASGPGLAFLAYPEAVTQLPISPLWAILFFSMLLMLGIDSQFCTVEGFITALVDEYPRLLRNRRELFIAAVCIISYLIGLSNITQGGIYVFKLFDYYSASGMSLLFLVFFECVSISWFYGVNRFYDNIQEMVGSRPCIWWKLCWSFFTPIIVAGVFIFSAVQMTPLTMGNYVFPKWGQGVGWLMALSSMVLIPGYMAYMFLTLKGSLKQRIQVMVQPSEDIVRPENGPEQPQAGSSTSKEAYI
Experimental: (§2) tsA201 cells were cultured in GlutaMAX-I DMEM supplemented with 10% fetal bovine serum, penicillin (100 U/ml), and streptomycin (100 μg/ml) at 37° C. in a humidified atmosphere of 95% air and 5% CO2. […] J. Biol. Chem. 2007, 282, 19331-19341. […] Quantification was performed by using Microscint™ 20 scintillation fluid (PerkinElmer) and a Packard TopCount microplate scintillation counter.

[10] = biological target: T7, hGAT-3 (Homo sapiens, UniProt P48066); assay: as above; assay type: cell-based
T7 construct: expressed in transfected cells; host or cells: tsA201 cells, transient (PolyFect)
T7 sequence (P48066 whole entry): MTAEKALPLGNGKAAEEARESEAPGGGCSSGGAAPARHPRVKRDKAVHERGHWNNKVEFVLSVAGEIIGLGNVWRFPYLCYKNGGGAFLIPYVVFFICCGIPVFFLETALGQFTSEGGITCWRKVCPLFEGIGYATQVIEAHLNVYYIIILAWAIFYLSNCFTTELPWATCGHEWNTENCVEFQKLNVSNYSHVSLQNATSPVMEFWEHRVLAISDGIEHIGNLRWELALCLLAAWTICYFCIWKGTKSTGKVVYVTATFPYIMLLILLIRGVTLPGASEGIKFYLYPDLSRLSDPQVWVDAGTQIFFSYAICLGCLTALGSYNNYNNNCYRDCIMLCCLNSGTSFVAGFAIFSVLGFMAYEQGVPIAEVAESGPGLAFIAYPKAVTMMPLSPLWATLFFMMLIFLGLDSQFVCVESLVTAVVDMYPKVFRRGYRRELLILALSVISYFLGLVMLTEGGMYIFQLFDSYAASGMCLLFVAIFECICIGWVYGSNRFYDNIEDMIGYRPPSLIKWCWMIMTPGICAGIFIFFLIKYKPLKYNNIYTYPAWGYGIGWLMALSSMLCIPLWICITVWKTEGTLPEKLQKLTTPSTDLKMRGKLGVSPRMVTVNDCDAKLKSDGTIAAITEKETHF
Experimental: as §2

[11] = biological target: T8, hGAT-2 (Homo sapiens, UniProt Q9NSD5); assay: as above; assay type: cell-based
T8 construct: expressed in transfected cells; host or cells: tsA201 cells, transient (PolyFect)
T8 sequence (Q9NSD5 whole entry): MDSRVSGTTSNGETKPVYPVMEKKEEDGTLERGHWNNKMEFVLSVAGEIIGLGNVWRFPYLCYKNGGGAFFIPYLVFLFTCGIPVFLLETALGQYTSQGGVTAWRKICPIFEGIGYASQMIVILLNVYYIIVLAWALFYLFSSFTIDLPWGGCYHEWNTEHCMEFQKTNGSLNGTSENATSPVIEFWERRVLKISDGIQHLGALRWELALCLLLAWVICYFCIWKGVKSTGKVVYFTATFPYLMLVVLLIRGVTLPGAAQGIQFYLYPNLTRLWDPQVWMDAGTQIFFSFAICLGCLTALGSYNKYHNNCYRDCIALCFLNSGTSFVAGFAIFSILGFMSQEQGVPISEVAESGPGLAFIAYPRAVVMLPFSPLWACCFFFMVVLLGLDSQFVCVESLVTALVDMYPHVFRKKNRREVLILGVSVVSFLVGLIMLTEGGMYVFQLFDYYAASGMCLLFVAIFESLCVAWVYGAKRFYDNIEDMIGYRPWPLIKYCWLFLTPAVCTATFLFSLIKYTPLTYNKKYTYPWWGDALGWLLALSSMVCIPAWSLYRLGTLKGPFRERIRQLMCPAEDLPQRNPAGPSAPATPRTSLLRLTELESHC
Experimental: as §2

[12] = biological target: T9, hBGT-1 (Homo sapiens, UniProt P48065); assay: as above; assay type: cell-based
T9 construct: expressed in transfected cells; host or cells: tsA201 cells, transient (PolyFect)
Experimental: as §2

N[C@H]1C[C@@H](C(=O)O)CC1=C(F)F [CPP-115]
ED50 ([1]; Mus musculus): 58.9 mg/kg | MES TPE [1]: TPE 6 hours | effect as agonist or antagonist at ρ1 GABAC receptors ([2]; 100 μM): no effect as an agonist or antagonist | activation of current in oocytes ([2]; 100 μM alone, clamped at −60 mV): did not activate a current | reduction of the GABA response on co-application ([2]; 100 μM co-applied with GABA 1 μM, p>0.05, n=3): did not significantly reduce the GABA response | dopamine levels after cocaine challenge [3]: less than 300 times baseline | IC50 [4]: > 100 µM | IC50 [5]: > 1000 µM | IC50 [6]: > 1000 µM | IC50 [7]: > 1000 µM | IC50 [8]: > 1000 µM | IC50 [9]: > 1000 µM | IC50 [10]: > 1000 µM | IC50 [11]: > 1000 µM | IC50 [12]: > 1000 µM
